From US10723723B2, “Substituted bicycle heterocyclic derivatives useful as ROMK channel inhibitors” (BRISTOL-MYERS SQUIBB COMPANY, priority 2016, dated 2020)

Experiments:
[1] = target: hROMK (human Kir1.1) (Homo sapiens (Human), UniProt P48048); assay: Thallium Flux Assay (FluxOR, CHO T-Rex hROMK stable cell line); assay type: cell-based; details: CHO T-Rex hROMK cells, 10-point concentration response curve; read-out: Human ROMK TH Flux IC50
[2] = target: hERG channels (Homo sapiens (Human), UniProt Q12809); assay: hERG Manual Patch Clamp Assay (HEK 293 cells stably expressing hERG channels); assay type: cell-based; details: human, HEK 293 cells stably expressing hERG channels, pH 7.4
hERG channels, sequence (Q12809 whole entry): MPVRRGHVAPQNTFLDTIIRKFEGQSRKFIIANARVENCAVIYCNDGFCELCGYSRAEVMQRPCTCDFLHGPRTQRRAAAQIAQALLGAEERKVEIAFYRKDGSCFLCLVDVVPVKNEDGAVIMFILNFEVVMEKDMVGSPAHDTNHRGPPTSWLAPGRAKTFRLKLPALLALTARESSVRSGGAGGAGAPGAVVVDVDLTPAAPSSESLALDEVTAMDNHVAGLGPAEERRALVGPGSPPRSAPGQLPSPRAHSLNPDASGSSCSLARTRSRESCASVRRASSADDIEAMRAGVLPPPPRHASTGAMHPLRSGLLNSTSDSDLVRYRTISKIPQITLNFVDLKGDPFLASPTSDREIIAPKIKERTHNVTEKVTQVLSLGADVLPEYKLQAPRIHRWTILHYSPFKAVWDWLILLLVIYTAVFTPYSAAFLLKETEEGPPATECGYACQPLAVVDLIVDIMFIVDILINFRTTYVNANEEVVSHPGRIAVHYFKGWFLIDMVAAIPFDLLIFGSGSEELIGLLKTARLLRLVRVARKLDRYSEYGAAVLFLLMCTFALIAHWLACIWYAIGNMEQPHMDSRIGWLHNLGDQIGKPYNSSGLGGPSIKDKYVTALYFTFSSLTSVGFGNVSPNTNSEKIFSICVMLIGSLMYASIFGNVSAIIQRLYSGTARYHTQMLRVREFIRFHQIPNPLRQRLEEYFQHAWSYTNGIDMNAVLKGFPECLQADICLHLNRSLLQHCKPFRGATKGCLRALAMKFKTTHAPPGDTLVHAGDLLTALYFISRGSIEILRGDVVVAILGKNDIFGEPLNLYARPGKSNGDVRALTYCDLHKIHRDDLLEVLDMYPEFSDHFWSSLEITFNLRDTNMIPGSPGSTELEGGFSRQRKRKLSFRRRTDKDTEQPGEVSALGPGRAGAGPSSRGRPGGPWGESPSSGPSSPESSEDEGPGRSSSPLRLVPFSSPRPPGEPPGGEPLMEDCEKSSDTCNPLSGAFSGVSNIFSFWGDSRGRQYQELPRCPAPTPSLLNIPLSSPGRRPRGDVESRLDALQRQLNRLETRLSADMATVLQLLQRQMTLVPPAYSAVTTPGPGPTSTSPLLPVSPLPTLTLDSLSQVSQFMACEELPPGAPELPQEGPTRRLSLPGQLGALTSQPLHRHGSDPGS
Description: hERG electrophysiology assay: The experimental compounds were assessed for hERG activity on HEK 293 cells stably expressing hERG channels using patch clamp technique. Coverslips plated with hERG expressing cells were placed in the experimental chamber and were perfused with a solution composed of (in mM): 140 NaCl, 4 KCl, 1.8 CaCl2), 1 MgCl2, 10 Glucose, 10 HEPES (pH 7.4, NaOH) at room temperature. Borosilicate patch pipettes had tip resistances of 2-4 Mohms when filled with an internal solution containing: 130 KCl, 1 MgCl2, 1 CaCl2), 10 EGTA, 10 HEPES, 5 ATP-K2 (pH 7.2, KOH). The cells were clamped at −80 mV in whole cell configuration using an Axopatch 200B (Axon instruments, Union City, Calif.) patch clamp amplifier controlled by pClamp (Axon instruments) software. Upon formation of a gigaseal, the following voltage protocol was repeatedly (0.05 Hz) applied to record tail currents: depolarization step from −80 mV to +20 mV for 2 seconds followed by a hyperpolarization step to −65 mV (3 seconds) to elicit tail currents. Compounds were applied after stabilization of tail current. First, tail currents were recorded in presence of extracellular solution alone (control) and subsequently, in extracellular solution containing increasing compound concentrations. Each compound concentration was applied for 2-5 minutes. The percentage inhibition at each concentration was calculated as reduction in peak tail current with respect to the peak tail current recorded in the presence of control solution. Data analysis was performed in a custom made template. The percent inhibitions at different concentrations were plotted to obtain a concentration response curve, which was subsequently fitted with a four parameter equation to calculate hERG IC50 value.
A lower hERG % Inhibition value indicates less inhibition of the hERG current

hROMK (human Kir1.1), sequence (P48048 whole entry): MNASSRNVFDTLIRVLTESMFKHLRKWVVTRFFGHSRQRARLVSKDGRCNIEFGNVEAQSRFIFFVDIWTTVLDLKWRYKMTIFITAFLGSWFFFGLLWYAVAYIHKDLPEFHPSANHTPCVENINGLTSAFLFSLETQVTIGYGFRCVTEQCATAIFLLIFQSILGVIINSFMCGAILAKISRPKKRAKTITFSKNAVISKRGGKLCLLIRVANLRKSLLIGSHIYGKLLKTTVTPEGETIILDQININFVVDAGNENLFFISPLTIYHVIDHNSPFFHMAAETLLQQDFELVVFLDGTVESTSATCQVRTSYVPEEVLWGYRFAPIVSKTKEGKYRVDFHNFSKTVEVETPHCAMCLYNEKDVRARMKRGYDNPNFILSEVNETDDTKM

| SMILES | IC50 [1] | inhibition at 1 µM [2] |
| --- | --- | --- |
| Cc1cn(-c2ccc(CNC[C@H](O)c3ccc4c(c3C)COC4=O)cn2)nc1C#N [Example 92, (R)-1-(5-(((2-hydroxy-2-(4-methyl-1-oxo-1,3-dihydroisobenzofuran-5-yl)ethyl)amino)methyl)pyridin-2-yl)-4-methyl-1H-pyrazole-3-carbonitrile] | 6.4 nM | 24% |
| Cc1c(C(O)CN(C)Cc2cnc(-c3ccc(C#N)c(F)c3)nc2)ccc2c1COC2=O (stereo not drawn) [Example 19-I, 2-fluoro-4-(5-(((2-hydroxy-2-(4-methyl-1-oxo-1,3-dihydroisobenzofuran-5-yl)ethyl)(methyl)amino)methyl)pyrimidin-2-yl)benzonitrile] | 150 nM | 33% |
| Cc1cc(-n2cc(CNC[C@H](O)c3ccc4c(c3C)COC4=O)c(C(F)F)n2)ncc1C#N [Example 93, (R)-6-(3-(difluoromethyl)-4-(((2-hydroxy-2-(4-methyl-1-oxo-1,3-dihydroisobenzofuran-5-yl)ethyl)amino)methyl)-1H-pyrazol-1-yl)-4-methylnicotinonitrile] | 15 nM | 29% |
| CCOc1cc(-n2cc(CNC[C@H](O)c3ccc4c(c3C)COC4=O)nn2)ncc1C#N [Example 156, (R)-4-ethoxy-6-(4-(((2-hydroxy-2-(4-methyl-1-oxo-1,3-dihydroisobenzofuran-5-yl)ethyl)amino)methyl)-1H-1,2,3-triazol-1-yl)nicotinonitrile] | 9.7 nM | 15% |
| Cc1c([C@@H](O)CNCc2cn(-c3ccc4oc(=O)n(C)c4c3C)cn2)ccc2c1COC2=O [Example 149, (R)-5-(4-(((2-hydroxy-2-(4-methyl-1-oxo-1,3-dihydroisobenzofuran-5-yl)ethyl)amino)methyl)-1H-imidazol-1-yl)-3,4-dimethylbenzo[d]oxazol-2(3H)-one] | 84 nM | 8.6% |
| Cc1c([C@@H](O)CNCc2ccc(-n3ccc(C#N)n3)nc2)ccc2c1COC2=O [Example 151, (R)-1-(5-(((2-hydroxy-2-(4-methyl-1-oxo-1,3-dihydroisobenzofuran-5-yl)ethyl)amino)methyl)pyridin-2-yl)-1H-pyrazole-3-carbonitrile] | 29 nM | 45% |
| CCc1nn(-c2ncc(CNC[C@H](O)c3ccc4c(c3C)COC4=O)cn2)cc1C#N [Example 114, (R)-3-ethyl-1-(5-(((2-hydroxy-2-(4-methyl-1-oxo-1,3-dihydroisobenzofuran-5-yl)ethyl)amino)methyl)pyrimidin-2-yl)-1H-pyrazole-4-carbonitrile] | 17 nM | 25% |
| Cc1c([C@@H](O)CN(Cc2ccc(-c3ccc4oc(=O)n(C)c4c3)nc2)CC2CC2)ccc2c1COC2=O [Example 162, (R)-5-(5-(((cyclopropylmethyl)(2-hydroxy-2-(4-methyl-1-oxo-1,3-dihydroisobenzofuran-5-yl)ethyl)amino)methyl)pyridin-2-yl)-3-methylbenzo[d]oxazol-2(3H)-one] | 110 nM | 44% |
| COc1nn(-c2ccc(CNC[C@H](O)c3ccc4c(c3C)COC4=O)cn2)cc1C#N [Example 104, (R)-1-(5-(((2-hydroxy-2-(4-methyl-1-oxo-1,3-dihydroisobenzofuran-5-yl)ethyl)amino)methyl)pyridin-2-yl)-3-methoxy-1H-pyrazole-4-carbonitrile] | 9.4 nM | 42% |
| Cc1cc(-c2ncc(CNC[C@H](O)c3ccc4c(c3C)COC4=O)s2)ncc1C#N [Example 128, (R)-6-(5-(((2-hydroxy-2-(4-methyl-1-oxo-1,3-dihydroisobenzofuran-5-yl)ethyl)amino)methyl)thiazol-2-yl)-4-methylnicotinonitrile] | 6.6 nM | 22% |
| COc1cc(-n2cc(CNC[C@H](O)c3ccc4c(c3C)COC4=O)cn2)nc(C)c1C#N [Example 70, (R)-6-(4-(((2-hydroxy-2-(4-methyl-1-oxo-1,3-dihydroisobenzofuran-5-yl)ethyl)amino)methyl)-1H-pyrazol-1-yl)-4-methoxy-2-methylnicotinonitrile] | 19 nM | 27% |
| Cc1c([C@@H](O)CNCc2cn(-c3ccc4oc(=O)n(C)c4c3)nc2C(F)(F)F)ccc2c1COC2=O [Example 95, (R)-5-(4-(((2-hydroxy-2-(4-methyl-1-oxo-1,3-dihydroisobenzofuran-5-yl)ethyl)amino)methyl)-3-(trifluoromethyl)-1H-pyrazol-1-yl)-3-methylbenzo[d]oxazol-2(3H)-one] | 56 nM | 11% |
| Cc1c([C@@H](O)CNCc2ccc(-n3cnc(C#N)c3)nc2)ccc2c1COC2=O [Example 131, (R)-1-(5-(((2-hydroxy-2-(4-methyl-1-oxo-1,3-dihydroisobenzofuran-5-yl)ethyl)amino)methyl)pyridin-2-yl)-1H-imidazole-4-carbonitrile] | 9.2 nM | 79% |
| COc1c(CNC[C@H](O)c2ccc3c(c2C)COC3=O)cnn1-c1cc(C)c(C#N)cn1 [Example 35, (R)-6-(4-(((2-hydroxy-2-(4-methyl-1-oxo-1,3-dihydroisobenzofuran-5-yl)ethyl)amino)methyl)-5-methoxy-1H-pyrazol-1-yl)-4-methylnicotinonitrile] | 1 nM | 91% |
| COc1cc(-c2ccc(CNC[C@H](O)c3ccc4c(c3C)COC4=O)c(OC)n2)ncc1C#N [Example 82, (R)-5′-(((2-hydroxy-2-(4-methyl-1-oxo-1,3-dihydroisobenzofuran-5-yl)ethyl)amino)methyl)-4,6′-dimethoxy-[2,2′-bipyridine]-5-carbonitrile] | 31 nM | 44% |
| Cc1cc(-n2cc(CNC[C@H](NCCO)c3ccc4c(c3C)COC4=O)cn2)ncc1C#N [Example 56, (R)-6-(4-(((2-((2-hydroxyethyl)amino)-2-(4-methyl-1-oxo-1,3-dihydroisobenzofuran-5-yl)ethyl)amino)methyl)-1H-pyrazol-1-yl)-4-methylnicotinonitrile] | 80 nM | 3.7% |
| COc1nc(-n2cc(CNC[C@H](O)c3ccc4c(c3C)COC4=O)cn2)ccc1C#N [Example 48, (R)-6-(4-(((2-hydroxy-2-(4-methyl-1-oxo-1,3-dihydroisobenzofuran-5-yl)ethyl)amino)methyl)-1H-pyrazol-1-yl)-2-methoxynicotinonitrile] | 14 nM | 67% |
| COc1cc(-n2ncc3c(CNC[C@H](O)c4ccc5c(c4C)COC5=O)cccc32)ncc1C#N [Example 55] | 78 nM | 69% |
| COc1cc(-n2cc(CNC[C@H](O)c3ccc4c(c3OC)COC4=O)cn2)ncc1C#N [Example 150, (R)-6-(4-(((2-hydroxy-2-(4-methoxy-1-oxo-1,3-dihydroisobenzofuran-5-yl)ethyl)amino)methyl)-1H-pyrazol-1-yl)-4-methoxynicotinonitrile] | 56 nM | 55% |
| Cc1c([C@@H](O)CNCc2cnn(-c3cnc(C#N)cn3)c2)ccc2c1COC2=O [Example 41, (R)-5(4-(((2-hydroxy-2-(4-methyl-1-oxo-1,3-dihydroisobenzofuran-5-yl)ethyl)amino)methyl)-1H-pyrazol-1-yl)pyrazine-2-carbonitrile] | 32 nM | 50% |
| Cc1c(C(O)CN(C)Cc2ccc(-n3cc(C#N)c4ccccc43)cc2)ccc2c1COC2=O (stereo not drawn) [Example 12-I, 1-(4-(((2-hydroxy-2-(4-methyl-1-oxo-1,3-dihydroisobenzofuran-5-yl)ethyl)(methyl)amino)methyl)phenyl)-1H-indole-3-carbonitrile] | 78 nM | 99% |
| Cc1c([C@@H](O)CNCc2cccc(-c3ccc4oc(=O)n(C)c4c3)n2)ccc2c1COC2=O [Example 133, (R)-5-(6-(((2-hydroxy-2-(4-methyl-1-oxo-1,3-dihydroisobenzofuran-5-yl)ethyl)amino)methyl)pyridin-2-yl)-3-methylbenzo[d]oxazol-2(3H)-one] | 900 nM | 59% |
| Cc1cc(-c2ccc(CN(C)CC(O)c3ccc4c(c3C)COC4=O)cc2)ncc1C#N (single isomer, unassigned) [Example 31-I, 6-(4-(((2-hydroxy-2-(4-methyl-1-oxo-1,3-dihydroisobenzofuran-5-yl)ethyl)(methyl)amino)methyl)phenyl)-4-methylnicotinonitrile] | 40 nM | 39% |
| COc1cc(-n2cc(CNC[C@H](O)c3ccc4c(c3C)COC4=O)cn2)cc2c1oc(=O)n2C [Example 112, (R)-5-(4-(((2-hydroxy-2-(4-methyl-1-oxo-1,3-di-Hydroisobenzofuran-5-yl)ethyl)amino)methyl)-1H-pyrazol-1-yl)-7-methoxy-3-mthylbenzo[d]oxazol-2(3H)-one] | 66 nM | 4.2% |
| Cc1c([C@@H](O)CNCc2cnn(-c3cccc(C#N)c3)c2)ccc2c1COC2=O [Example 161, (R)-3-(4-(((2-hydroxy-2-(4-methyl-1-oxo-1,3-dihydroisobenzofuran-5-yl)ethyl)amino)methyl)-1H-pyrazol-1-yl)benzonitrile] | 77 nM | 48% |
| COc1nn(-c2ncc(CNC[C@H](O)c3ccc4c(c3C)COC4=O)cn2)cc1C#N [Example 113, (R)-1-(5-(((2-hydroxy-2-(4-methyl-1-oxo-1,3-dihydroisobenzofuran-5-yl)ethyl)amino)methyl)pyrimidin-2-yl)-3-methoxy-1H-pyrazole-4-carbonitrile] | 14 nM | 12% |
| Cc1ncn(-c2ncc(CNC[C@H](O)c3ccc4c(c3C)COC4=O)cn2)c1C [Example 88, (R)-5-(2-(((2-(4,5-dimethyl-1H-imidazol-1-yl)pyrimidin-5-yl)methyl)amino)-1-hydroxyethyl)-4-methylisobenzofuran-1(3H)-one] | 42 nM | 3.6% |
